According to patent US20080234337A1, “Preventive and/or Remedy for Hyperkalemia Containing Ep4 Agonist” (ONO PHARMACEUTICAL CO., LTD., priority 2004, published 2008):

Target: T1, EP4 (Cavia porcellus, UniProt Q1HG69)
T1 construct: Tissue samples including submucosal ganglia and mucosa were obtained by removal of myenteric plexus; from tissue; host or cells: guinea pig distal colon (mucosa with submucosal ganglia), mounted in Ussing flux chambers
Assay: Short-circuit current (Isc) measurement of colonic ion transport in guinea pig distal colon tissue using Ussing flux chamber (investigation of EP4 agonistic activity)
Assay type: cell-based

T1 sequence (Q1HG69 1-487): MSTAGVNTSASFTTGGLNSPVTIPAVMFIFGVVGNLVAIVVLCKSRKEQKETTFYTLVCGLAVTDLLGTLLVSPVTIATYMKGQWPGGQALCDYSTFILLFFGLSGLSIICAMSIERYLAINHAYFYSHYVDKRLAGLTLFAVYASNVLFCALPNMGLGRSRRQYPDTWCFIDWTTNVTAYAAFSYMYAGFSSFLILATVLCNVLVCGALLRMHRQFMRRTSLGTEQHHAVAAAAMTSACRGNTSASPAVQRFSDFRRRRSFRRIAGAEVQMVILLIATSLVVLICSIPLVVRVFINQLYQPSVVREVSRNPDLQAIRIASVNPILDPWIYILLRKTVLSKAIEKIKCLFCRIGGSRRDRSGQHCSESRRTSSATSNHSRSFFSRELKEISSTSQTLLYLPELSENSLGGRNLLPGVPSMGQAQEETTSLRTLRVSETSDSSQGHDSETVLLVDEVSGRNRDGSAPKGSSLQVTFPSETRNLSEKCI

Row | SMILES | change of short-circuit current (Isc) (addition of test compound into serosal chamber, concentration not given, FIG. 3) | decrease of short-circuit current (Isc) in presence of EP4 antagonist (PGE2 at low concentration plus EP4 antagonist (not named)) | change of short-circuit current (Isc) (added into serosal chamber at 10^-5 mol/L, tetrodotoxin and piroxicam pretreatment, FIG. 1) | change of short-circuit current (Isc) (added into serosal chamber at 10^-6 mol/L, tetrodotoxin and piroxicam pretreatment, FIG. 1) | change of short-circuit current (Isc) (added into serosal chamber at from 10^-8 to 10^-7 mol/L, tetrodotoxin and piroxicam pretreatment, FIG. 1) | change of short-circuit current (Isc) (low concentration) | potassium secretion (suggested by decrease of Isc) (low concentration)
1 | COCc1cccc(C[C@H](O)/C=C/[C@H]2[C@H](O)CC(=O)[C@@H]2SCCCSCC(=O)O)c1 [compound 1, ({3-[((1R,2S,3R)-3-hydroxy-2-{(1E,3S)-3-hydroxy-4-[3-(methoxymethyl)phenyl]but-1-enyl}-5-oxocyclopentyl)sulfanyl]propyl}sulfanyl)acetic acid] | decrease of short-circuit current (Isc) |  |  |  |  |  | 
2 | CCCCC[C@H](O)/C=C/[C@H]1[C@H](O)CC(=O)[C@@H]1C/C=C\CCCC(=O)O [PGE2] |  | countered by EP4 antagonist | biphasic [Transient phase, Sustained Phase] change of short-circuit current (Isc) | temporary increase of Isc | decrease of Isc | decrease of short-circuit current (Isc) | promoted the potassium secretion
